Reference: patent publication US3959256A
Converted amounts (≈) assume the structure as drawn. Where two headings read alike, the source gives them in different places.

How the values were obtained:
[1] = test system: Staphylococcus aureus Smith; assay: Minimum inhibitory concentration, standard serial dilution method; assay type: cell-based; details: read-out: Minimum Inhibitory Concentrations
[2] = test system: Bacillus subtilis PCI 219; assay: as above; assay type: cell-based; details: read-out: Minimum Inhibitory Concentrations
[3] = test system: Corynebacterium diphtheriae Type intermedius; assay: as above; assay type: cell-based; details: read-out: Minimum Inhibitory Concentrations
[4] = test system: Streptococcus faecalis ATCC 8043; assay: as above; assay type: cell-based; details: Enterococcus faecalis, read-out: Minimum Inhibitory Concentrations
[5] = test system: Bacillus anthracis No.119; assay: microbe, parasite or virus in culture; assay type: cell-based; details: NO.119, 24 h, read-out: Minimum Inhibitory Concentrations
[6] = test system: Staphylococcus albus 1200A; assay: Minimum inhibitory concentration, standard serial dilution method; assay type: cell-based; details: read-out: Minimum Inhibitory Concentrations
[7] = test system: Diplococcus pneumoniae Type I; assay: as above; assay type: cell-based; details: Streptococcus pneumoniae, read-out: Minimum Inhibitory Concentrations
[8] = test system: Streptococcus pyogenes D-58; assay: as above; assay type: cell-based; details: read-out: Minimum Inhibitory Concentrations
[9] = test system: Bacillus subtilis ATCC 6633; assay: as above; assay type: cell-based; details: read-out: Minimum Inhibitory Concentrations
[10] = test system: Streptococcus hemolyticus Cook; assay: as above; assay type: cell-based; details: Streptococcus pyogenes, read-out: Minimum Inhibitory Concentrations
mice = assay: Acute toxicity in mice, intraperitoneal; details: 3,000 mg/kg intraperitoneally; one week after dosing; 3 mice per group
[11] = test system: Staphylococcus aureus 209P; assay: Minimum inhibitory concentration, standard serial dilution method; assay type: cell-based; details: Brain Heart Infusion broth, 37°C, 24 hours, read-out: Minimum Inhibitory Concentrations
Experimental: (§1) The minimum inhibitory concentrations of these compounds to various microorganisms were determined according to a standard serial dilution method using Brain Heart Infusion broth as the incubation medium at 37°C, the estimation of the growth of the microorganisms being effected after 24 hours' incubation.

[12] = test system: Diplococcus pneumoniae Type III; assay: as above; assay type: cell-based; details: Streptococcus pneumoniae, Brain Heart Infusion broth, 37°C, 24 hours, read-out: Minimum Inhibitory Concentrations
Experimental: as §1

[13] = test system: Streptococcus hemolyticus D-90; assay: as above; assay type: cell-based; details: Streptococcus pyogenes, D90, Brain Heart Infusion broth, 37°C, 24 hours, read-out: Minimum Inhibitory Concentrations
Experimental: as §1

[14] = test system: Corynebacterium diphtheriae Type gravis; assay: as above; assay type: cell-based; details: read-out: Minimum Inhibitory Concentrations
Sarcina lutea = assay: as above; assay type: cell-based; details: Micrococcus luteus, read-out: Minimum Inhibitory Concentrations
[15] = test system: Staphylococcus aureus Terajima; assay: as above; assay type: cell-based; details: read-out: Minimum Inhibitory Concentrations
Staphylococcus aureus = assay: Curative effect in therapeutic treatment of Staphylococcus aureus infections in mice; details: oral, immediately after intraperitoneal inoculation, 7th day, 10 mice per group
[16] = PCI219, Bacillus subtilis PCI 219, Brain Heart Infusion broth, 37°C, 24 hours
[17] = Corynebacterium diphtheriae Type intermedius, Brain Heart Infusion broth, 37°C, 24 hours
[18] = Diplococcus pneumoniae Type I, Brain Heart Infusion broth, 37°C, 24 hours
[19] = Streptococcus pyogenes, D58, 24 h
[20] = ATCC6633, Bacillus subtilis ATCC 6633, Brain Heart Infusion broth, 37°C, 24 hours
[21] = Streptococcus hemolyticus Cook, Brain Heart Infusion broth, 37°C, 24 hours
[22] = Corynebacterium diphtheriae Type gravis, Brain Heart Infusion broth, 37°C, 24 hours
[23] = Sarcina lutea, Brain Heart Infusion broth, 37°C, 24 hours
[24] = Staphylococcus aureus Terajima, Brain Heart Infusion broth, 37°C, 24 hours
[25] = Corynebacterium diphtheriae, 24 h

SMILES	MIC ([1]; Staphylococcus aureus, 24 h)	MIC [2, 16]	MIC [3, 17]	MIC ([4]; ATCC8043, 24 h)	MIC [5]	MIC ([6]; Staphylococcus, 1200A, 24 h)	MIC [7, 18]	MIC [8, 19]	MIC [9, 20]	MIC [10, 21]	Rate of the sacrificed mice (average) (mice)	MIC [11]	MIC [12]	MIC [13]	MIC [14, 22]	MIC (Sarcina lutea; [23])	MIC [15, 24]	Rate of Surviving Mice (in percentage) (Staphylococcus aureus; 100 mg/kg)	Rate of Surviving Mice (in percentage) (Staphylococcus aureus; 200 mg/kg)	Rate of Surviving Mice (in percentage) (Staphylococcus aureus; 400 mg/kg)	further results
CCC(=O)OC1CC(=O)OC(C)CC=CC=CC(OC(C)=O)C(C)CC(CC=O)C(OC2OC(C)C(OC3CC(C)(OCOC(C)=O)C(OC(=O)CC)C(C)O3)C(N(C)C)C2O)C1OC (stereo not shown) [9-O-acetyl-3"-O-acetoxymethyl-SF-837, 9-O-acetyl-3"-O-acetoxymethyl-SF-837 substance]	1.56 µg/mL (≈ 1.68 µM)	0.78 µg/mL (≈ 0.84 µM)	0.19 µg/mL (≈ 0.205 µM)	1.56 µg/mL (≈ 1.68 µM)	1.56 µg/mL (≈ 1.68 µM)	1.56 µg/mL (≈ 1.68 µM)	0.19 µg/mL (≈ 0.205 µM)	1.56 µg/mL (≈ 1.68 µM)	0.78 µg/mL (≈ 0.84 µM)	0.19 µg/mL (≈ 0.205 µM)	0/3	1.56 µg/mL (≈ 1.68 µM)	1.56 µg/mL (≈ 1.68 µM)	1.56 µg/mL (≈ 1.68 µM)	0.19 µg/mL (≈ 0.205 µM)	0.19 µg/mL (≈ 0.205 µM)	3.13 µg/mL (≈ 3.37 µM)	–	–	–	–
CCC(=O)OC1C=CC=CCC(C)OC(=O)CC(OC(=O)CC)C(OC)C(OC2OC(C)C(OC3CC(C)(OCOC(C)=O)C(OC(=O)CC)C(C)O3)C(N(C)C)C2O)C(CC=O)CC1C (stereo not shown) [9-O-propionyl-3"-O-acetoxymethyl-SF-837, 9-O-propionyl-3"-O-acetoxymethyl-SF-837 substance]	–	0.78 µg/mL (≈ 0.828 µM)	0.19 µg/mL (≈ 0.202 µM)	1.56 µg/mL (≈ 1.66 µM)	1.56 µg/mL (≈ 1.66 µM)	1.56 µg/mL (≈ 1.66 µM)	0.19 µg/mL (≈ 0.202 µM)	–	0.78 µg/mL (≈ 0.828 µM)	0.19 µg/mL (≈ 0.202 µM)	0/3	1.56 µg/mL (≈ 1.66 µM)	1.56 µg/mL (≈ 1.66 µM)	1.56 µg/mL (≈ 1.66 µM)	0.19 µg/mL (≈ 0.202 µM)	0.19 µg/mL (≈ 0.202 µM)	3.13 µg/mL (≈ 3.32 µM)	33 percentage	56 percentage	100 percentage	MIC ([1]; Staphylococcus aureus Smith, Brain Heart Infusion broth, 37°C, 24 hours): 3.13 µg/mL (≈ 3.32 µM); MIC ([8]; D58, Streptococcus pyogenes D-58, Brain Heart Infusion broth, 37°C, 24 hours): 3.13 µg/mL (≈ 3.32 µM)
CCC(=O)OCOC1(C)CC(OC2C(C)OC(OC3C(CC=O)CC(C)C(OC(=O)CC)C=CC=CCC(C)OC(=O)CC(OC(=O)CC)C3OC)C(O)C2N(C)C)OC(C)C1OC(=O)CC (stereo not shown) [9-O-propionyl-3"-O-propionyloxymethyl-SF-837 substance]	1.56 µg/mL (≈ 1.63 µM)	0.78 µg/mL (≈ 0.816 µM)	0.19 µg/mL (≈ 0.199 µM)	–	1.56 µg/mL (≈ 1.63 µM)	–	0.19 µg/mL (≈ 0.199 µM)	1.56 µg/mL (≈ 1.63 µM)	0.78 µg/mL (≈ 0.816 µM)	–	0/3	1.56 µg/mL (≈ 1.63 µM)	1.56 µg/mL (≈ 1.63 µM)	1.56 µg/mL (≈ 1.63 µM)	0.19 µg/mL (≈ 0.199 µM)	0.19 µg/mL (≈ 0.199 µM)	3.13 µg/mL (≈ 3.27 µM)	33 percentage	56 percentage	100 percentage	MIC ([4]; ATCC8043, Streptococcus faecalis ATCC 8043, Brain Heart Infusion broth, 37°C, 24 hours): 3.13 µg/mL (≈ 3.27 µM); MIC ([6]; Staphylococcus albus 1200A, Brain Heart Infusion broth, 37°C, 24 hours): 3.13 µg/mL (≈ 3.27 µM); MIC ([10]; 24 h): 1.56 µg/mL (≈ 1.63 µM)
CCC(=O)OCOC1(C)CC(OC2C(C)OC(OC3C(CC=O)CC(C)C(OC(C)=O)C=CC=CCC(C)OC(=O)CC(OC(=O)CC)C3OC)C(O)C2N(C)C)OC(C)C1OC(=O)CC (stereo not shown) [9-O-acetyl-3"-O-propionyloxymethyl-SF-837 substance]	1.56 µg/mL (≈ 1.66 µM)	0.39 µg/mL (≈ 0.414 µM)	0.19 µg/mL (≈ 0.202 µM)	1.56 µg/mL (≈ 1.66 µM)	1.56 µg/mL (≈ 1.66 µM)	1.56 µg/mL (≈ 1.66 µM)	0.19 µg/mL (≈ 0.202 µM)	1.56 µg/mL (≈ 1.66 µM)	0.78 µg/mL (≈ 0.828 µM)	0.19 µg/mL (≈ 0.202 µM)	0/3	1.56 µg/mL (≈ 1.66 µM)	1.56 µg/mL (≈ 1.66 µM)	1.56 µg/mL (≈ 1.66 µM)	0.19 µg/mL (≈ 0.202 µM)	0.19 µg/mL (≈ 0.202 µM)	3.13 µg/mL (≈ 3.32 µM)	67 percentage	100 percentage	100 percentage	–
CCC(=O)OC1CC(=O)OC(C)CC=CC=CC(O)C(C)CC(CC=O)C(OC2OC(C)C(OC3CC(C)(O)C(OC(=O)CC)C(C)O3)C(N(C)C)C2O)C1OC (stereo not shown) [SF-837 (the free base), reference compound]	0.19 µg/mL (≈ 0.233 µM)	–	–	1.56 µg/mL (≈ 1.92 µM)	0.78 µg/mL (≈ 0.958 µM)	0.78 µg/mL (≈ 0.958 µM)	–	0.09 µg/mL (≈ 0.111 µM)	–	–	3/3	0.78 µg/mL (≈ 0.958 µM)	0.04 µg/mL (≈ 0.0491 µM)	1.56 µg/mL (≈ 1.92 µM)	–	–	–	0 percentage	45 percentage	67 percentage	MIC ([2]; Bacillus subtilis, PCI219, 24 h): 0.78 µg/mL (≈ 0.958 µM); MIC [3, 25]: 0.19 µg/mL (≈ 0.233 µM); MIC ([7]; 24 h): 0.04 µg/mL (≈ 0.0491 µM); MIC ([9]; Bacillus subtilis, ATCC6633, 24 h): 1.56 µg/mL (≈ 1.92 µM); MIC ([10]; 24 h): 0.09 µg/mL (≈ 0.111 µM); MIC [14, 25]: 0.19 µg/mL (≈ 0.233 µM); MIC (Sarcina lutea; 24 h): 0.09 µg/mL (≈ 0.111 µM); MIC ([15]; Staphylococcus aureus, 24 h): 1.56 µg/mL (≈ 1.92 µM)
